From ChEMBL document CHEMBL5528055, “Discovery and Identification of Novel 5-Hydroxy-4H-benzo[1,4]oxazin-3-one Derivatives as Potent β2-Adrenoceptor Agonists through Structure-Based Design, Synthesis, and Biological Evaluation” (J Med Chem, 2024)

Columns and labels:
[1] = molecular target: Beta-2 adrenergic receptor (Homo sapiens, UniProt P07550)
Description: Agonist activity at human beta2 adrenoceptor expressed in HEK293 cells assessed as induction of accumulation of cAMP by HTRF assay

[2] = molecular target: Beta-1 adrenergic receptor (Homo sapiens, UniProt P08588)
Description: Agonist activity at human beta1 adrenoceptor expressed in HEK293 cells assessed as induction of accumulation of cAMP by HTRF assay

Trachea = assay: Induction of smooth muscle relaxation in male Dunkin-Hartley guinea pig trachea strips assessed as maximal relaxation of histamine phosphate-induced guinea pig airway smooth muscle contraction relative to control; details: Cavia porcellus
[3] = Half life in male Balb/c mouse at 10 mg/kg, po measured upto 24 hrs by LC-MS/MS analysis; type: ADME, organism-based; details: in vivo
[4] = AUC (0 to infinity) in male Balb/c mouse at 2 mg/kg, iv measured upto 24 hrs by LC-MS/MS analysis; type: ADME, organism-based; details: in vivo
[5] = AUC (0 to infinity) in male Balb/c mouse at 10 mg/kg, po measured upto 24 hrs by LC-MS/MS analysis; type: ADME, organism-based; details: in vivo
[6] = Apparent volume of distribution in male Balb/c mouse at 2 mg/kg, iv measured upto 24 hrs by LC-MS/MS analysis; type: ADME, organism-based; details: in vivo, read-out: Vd(app)
[7] = Oral bioavailability in male Balb/c mouse at 10 mg/kg measured upto 24 hrs by LC-MS/MS analysis; type: ADME, organism-based; details: in vivo
[8] = MRT (0 to infinity) in male Balb/c mouse at 10 mg/kg, po measured upto 24 hrs by LC-MS/MS analysis; type: ADME, organism-based; details: in vivo
[9] = Half life in male Balb/c mouse at 2 mg/kg, iv measured upto 24 hrs by LC-MS/MS analysis; type: ADME, organism-based; details: in vivo
[10] = Tmax in male Balb/c mouse at 2 mg/kg, iv measured upto 24 hrs by LC-MS/MS analysis; type: ADME, organism-based; details: in vivo
[11] = Cmax in male Balb/c mouse at 2 mg/kg, iv measured upto 24 hrs by LC-MS/MS analysis; type: ADME, organism-based; details: in vivo
[12] = MRT in male Balb/c mouse at 10 mg/kg, po measured upto 24 hrs by LC-MS/MS analysis; type: ADME, organism-based; details: in vivo
[13] = MRT (0 to infinity) in male Balb/c mouse at 2 mg/kg, iv measured upto 24 hrs by LC-MS/MS analysis; type: ADME, organism-based; details: in vivo
[14] = Tmax in male Balb/c mouse at 10 mg/kg, po measured upto 24 hrs by LC-MS/MS analysis; type: ADME, organism-based; details: in vivo
[15] = AUC (0 to t) in male Balb/c mouse at 2 mg/kg, iv measured upto 24 hrs by LC-MS/MS analysis; type: ADME, organism-based; details: in vivo
[16] = Clearance in male Balb/c mouse at 2 mg/kg, iv measured upto 24 hrs by LC-MS/MS analysis; type: ADME, organism-based; details: in vivo
[17] = MRT in male Balb/c mouse at 2 mg/kg, iv measured upto 24 hrs by LC-MS/MS analysis; type: ADME, organism-based; details: in vivo
[18] = AUC (0 to t) in male Balb/c mouse at 10 mg/kg, po measured upto 24 hrs by LC-MS/MS analysis; type: ADME, organism-based; details: in vivo
[19] = Cmax in male Balb/c mouse at 10 mg/kg, po measured upto 24 hrs by LC-MS/MS analysis; type: ADME, organism-based; details: in vivo

Chain of Beta-1 adrenergic receptor (P08588 whole entry): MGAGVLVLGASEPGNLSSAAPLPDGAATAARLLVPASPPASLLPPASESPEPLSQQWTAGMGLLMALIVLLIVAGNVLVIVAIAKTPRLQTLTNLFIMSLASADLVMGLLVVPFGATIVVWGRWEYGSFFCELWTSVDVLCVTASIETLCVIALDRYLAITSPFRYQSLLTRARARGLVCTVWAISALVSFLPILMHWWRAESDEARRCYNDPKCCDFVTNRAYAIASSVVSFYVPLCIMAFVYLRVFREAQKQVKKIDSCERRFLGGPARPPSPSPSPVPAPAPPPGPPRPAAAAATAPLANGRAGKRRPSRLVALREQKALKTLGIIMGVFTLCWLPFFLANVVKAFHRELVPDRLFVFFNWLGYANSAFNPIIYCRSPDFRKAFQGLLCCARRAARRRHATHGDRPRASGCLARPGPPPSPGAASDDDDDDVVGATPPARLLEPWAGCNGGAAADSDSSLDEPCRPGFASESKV
Chain of Beta-2 adrenergic receptor (P07550 whole entry): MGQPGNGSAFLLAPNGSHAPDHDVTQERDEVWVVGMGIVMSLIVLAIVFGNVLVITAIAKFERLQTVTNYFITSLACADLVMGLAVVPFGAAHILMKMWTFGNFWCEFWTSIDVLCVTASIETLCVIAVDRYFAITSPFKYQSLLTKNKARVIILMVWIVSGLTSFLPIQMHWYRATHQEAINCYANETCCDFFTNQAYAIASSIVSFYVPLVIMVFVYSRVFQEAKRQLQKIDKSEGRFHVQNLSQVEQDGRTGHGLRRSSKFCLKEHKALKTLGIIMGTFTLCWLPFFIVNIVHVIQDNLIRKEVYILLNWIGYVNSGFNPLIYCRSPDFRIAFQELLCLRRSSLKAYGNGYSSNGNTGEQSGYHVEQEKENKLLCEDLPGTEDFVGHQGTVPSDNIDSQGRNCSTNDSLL

EC50 [1] [nM]	EC50 [2] [nM]	SMILES	Emax (Trachea) [%]	other results
–	0.245	Cc1cccc(CCCNCC(O)c2ccc(O)c3c2OCC(=O)N3)c1 (stereo unspecified)	–	–
0.00759	–	Cc1ccc(CCCNCC(O)c2ccc(O)c3c2OCC(=O)N3)cc1 (stereo unspecified)	–	–
1.32	1000	O=C1COc2c(C(O)CNCCc3ccc(Cl)cc3)ccc(O)c2N1 (stereo unspecified)	86.7	–
0.00589	0.257	O=C1COc2c(C(O)CNCCCc3ccccc3)ccc(O)c2N1 (stereo unspecified)	237	–
0.00871	–	COc1cccc(CCNCC(O)c2ccc(O)c3c2OCC(=O)N3)c1 (stereo unspecified)	–	–
0.0132	2.19	COc1ccc(CCNCC(O)c2ccc(O)c3c2OCC(=O)N3)cc1 (stereo unspecified)	59.6	–
0.00794	–	COc1cccc(CCCNCC(O)c2ccc(O)c3c2OCC(=O)N3)c1 (stereo unspecified)	–	–
0.00457	0.178	COc1ccccc1CCCNCC(O)c1ccc(O)c2c1OCC(=O)N2 (stereo unspecified)	109	–
0.0038	0.513	COc1ccc(CCCNCC(O)c2ccc(O)c3c2OCC(=O)N3)cc1 (stereo unspecified)	74.2	–
0.0055	1.2	O=C1COc2c(C(O)CNCCCc3ccc(C(F)(F)F)cc3)ccc(O)c2N1 (stereo unspecified)	132	–
0.0038	0.245	O=C1COc2c(C(O)CNCCCc3ccc(F)cc3)ccc(O)c2N1 (stereo unspecified)	69.5	–
0.00575	0.12	O=C1COc2c(C(O)CNCCCc3ccc(O)cc3)ccc(O)c2N1 (stereo unspecified)	181	–
0.00537	3.72	O=C1COc2c(C(O)CNCCc3ccc(F)cc3)ccc(O)c2N1 (stereo unspecified)	76.7	–

The next lines start with the compound.

SMILES	EC50 [1] [nM]	EC50 [2] [nM]	Emax (Trachea) [%]	other results
Cc1ccccc1CCNCC(O)c1ccc(O)c2c1OCC(=O)N2 (stereo unspecified)	0.0282	0.912	135	–
CCCCNCC(O)c1ccc(O)c2c1OCC(=O)N2 (stereo unspecified)	0.0257	16.6	53.3	–
O=C1COc2c(C(O)CNCCOc3ccccc3)ccc(O)c2N1 (stereo unspecified)	–	1.7	–	–
COc1ccc(CC(C)(C)NC[C@H](O)c2cc(O)cc3c2OCC(=O)N3)cc1 [OLODATEROL]	–	33.9	–	–
O=C1COc2c(C(O)CNCCCc3cc(F)cc(F)c3)ccc(O)c2N1 (stereo unspecified)	–	0.105	–	–
O=C1COc2c(C(O)CNCCCc3ccccc3F)ccc(O)c2N1 (stereo unspecified)	0.00479	0.17	90.5	–
O=C1COc2c(C(O)CNCCc3cccc(F)c3)ccc(O)c2N1 (stereo unspecified)	0.024	1.38	94.9	–
CCCCCCNCC(O)c1ccc(O)c2c1OCC(=O)N2 (stereo unspecified)	–	2.19	–	–
CC(C)NCC(O)c1ccc(O)c2c1OCC(=O)N2 (stereo unspecified)	–	1.82	–	–
CCCNCC(O)c1ccc(O)c2c1OCC(=O)N2 (stereo unspecified)	0.0316	14.5	60.5	–
CC(C)NCC(O)c1ccc(O)c(O)c1 (stereo unspecified) [ISOPROTERENOL]	–	–	141	–
O=C1COc2c(C(O)CNCCc3ccccc3F)ccc(O)c2N1 (stereo unspecified)	0.0115	4.07	128	–
O=C1COc2c(C(O)CNCCCc3cccc(F)c3)ccc(O)c2N1 (stereo unspecified)	0.00468	–	126	–
Cc1ccccc1CCCNCC(O)c1ccc(O)c2c1OCC(=O)N2 (stereo unspecified)	–	0.324	–	–
COc1cc(CCCNCC(O)c2ccc(O)c3c2OCC(=O)N3)cc(OC)c1OC (stereo unspecified)	0.0537	1.58	142	–
O=C1COc2c(C(O)CNCCCc3cccc(C(F)(F)F)c3)ccc(O)c2N1 (stereo unspecified)	–	0.513	–	–
O=C1COc2c(C(O)CNC3CC3)ccc(O)c2N1 (stereo unspecified)	0.0224	1.32	123	–
O=C1COc2c(C(O)CNCCCCc3ccccc3)ccc(O)c2N1 (stereo unspecified)	–	0.309	–	–
O=C1COc2c(C(O)CNCCc3ccccc3)ccc(O)c2N1 (stereo unspecified)	–	1.91	–	–
O=C1COc2c(C(O)CNCCCc3ccccc3O)ccc(O)c2N1 (stereo unspecified)	–	0.129	–	–
O=C1COc2c(C(O)CNCCc3ccccc3Cl)ccc(O)c2N1 (stereo unspecified)	–	5.37	–	–
O=C1COc2c(C(O)CNCCCc3cccc(O)c3)ccc(O)c2N1 (stereo unspecified)	0.00437	0.138	87.4	–
COc1ccccc1CCNCC(O)c1ccc(O)c2c1OCC(=O)N2.Cl (stereo unspecified)	–	–	–	half-life [3]: 3.77 h; AUC [4]: 0.338 µg·h/mL; AUC [5]: 0.306 µg·h/mL; Vd [6]: 44 L/kg; F [7]: 7.65%; MRT inf [8]: 6.98 h; half-life [9]: 5.21 h; Tmax [10]: 4.98 min; Cmax [11]: 0.416 µg/mL; MRT [12]: 5.92 h; MRT inf [13]: 3.43 h; Tmax [14]: 5.33 h; AUC(0-t) at 24 h [15]: 0.329 µg·h/mL; clearance [16]: 6.1 L/h/kg; MRT [17]: 2.67 h; AUC(0-t) at 24 h [18]: 0.294 µg·h/mL; Cmax [19]: 0.024 µg/mL
O=C1COc2c(C(O)CNCCc3cccc(Cl)c3)ccc(O)c2N1 (stereo unspecified)	0.0269	3.72	65.3	–
CC(C)(C)NCC(O)c1ccc(O)c2c1OCC(=O)N2 (stereo unspecified)	–	2.14	–	–
O=C1COc2c(C(O)CNCCC(c3ccccc3)c3ccccc3)ccc(O)c2N1 (stereo unspecified)	0.0468	2.24	63.3	–
